The source of these data is PMC7911516, “Investigation of the Factors Responsible for the Poor Oral Bioavailability of Acacetin in Rats: Physicochemical and Biopharmaceutical Aspects” (Pharmaceutics, 2021).

Series [1] in a line: Blood-to-plasma concentration ratio. The settings on record: Sprague-Dawley, rat, 37 °C, read-out: RB (blood-to-plasma concentration ratio). Format: in vitro ADME. As to the method: The fractions of unbound acacetin in plasma (fuP), microsomes (fuMIC), SGF (fuSGF), and SIF(fuSIF) were measured using a rapid equilibrium dialysis device (Thermo Fisher Scientific, Inc., Waltham, MA, USA) as previously described with slight modifications. Briefly, 0.2 mL of the matrix spiked with acacetin (10 μM) was placed into the “sample” chamber, and 0.4 mL of PBS was placed into the adjacent “buffer” chamber. The fractions of unbound acacetin were calculated as the concentration ratio between the two chambers. The blood-to-plasma concentration ratio (RB) of acacetin was determined as described previously. Briefly, 1-mL blood spiked with acacetin (1 μM) was incubated at 37 °C for 30 min. The blood sample was centrifuged at 2000× g for 5 min to prepare the plasma sample. The concentrations of acacetin in the aforementioned plasma and buffer samples were measured using the LC-MS/MS method.

Series [2] is described as follows: Intravenous pharmacokinetic study in rats. Format: in vivo. As for the experimental part:
The rats were fasted overnight before the experiment and anesthetized using an intramuscular injection of zoletil at 20 mg/kg. The femoral artery and vein were cannulated with a polyethylene tube (Clay Adams, Parsippany, NJ, USA). Acacetin (dissolved in a vehicle composed of DMSO, ethanol, and PEG400 (10:5:85, v/v/v)) was administered intravenously (10 mg/kg) or orally (100 mg/kg) to rats. Approximately 250 μL of blood was collected via the femoral artery at 0, 2, 5, 15, 30, 45, 60, 120, and 180 min after intravenous administration and at 0, 2, 5, 15, 30, 45, 60, 90, 120, and 180 min after oral administration. The cannula was flushed with heparin (20 IU/mL in saline) at each time point to prevent blood clotting. Following centrifugation of the blood sample at 8000× g and 4 °C for 2 min, 120 μL of plasma was obtained. Urine was collected at 1-h intervals in an ice-cold container over 24 h. After urine collection at 24 h, each rat was sacrificed by cervical dislocation; the entire GI tract (including its contents and feces) was excised, transferred into a beaker containing 100 mL methanol, and cut into small pieces using scissors. After manual stirring with a glass rod for 1 min, a 50-μL aliquot of the supernatant was collected. The plasma, urine (Ae24h), and GI tract (GI24h) samples were stored at −80 °C until further LC-MS/MS analysis. A noncompartmental analysis (WinNonlin ver. 3.1; Certara USA Inc., Princeton, NJ, USA) was performed to determine the following pharmacokinetic parameters: the AUCinf, area under plasma concentration versus time curve from time zero to the last sampling time (AUClast), t1/2, total body clearance (CL), apparent volume of distribution at steady state (Vss), and absolute oral bioavailability (F). The Cmax and time to reach Cmax (Tmax) were directly obtained from the plasma concentration versus time data.

Series [3] can be described thus: Disappearance in rat plasma and tissue S9 fractions. The settings on record: 10 μM, 5 min, S9 0.5 mg/mL, NADPH or UDPGA/alamethicin. The series is classed as in vitro ADME. As for the experimental part: The rat gut, spleen, kidney, liver, heart, brain, and lung were excised after cervical dislocation, rinsed with cold saline, blotted dry with tissue paper, and weighed. Each tissue sample was homogenized using a homogenizer (Ultra-Turrax T10 basi; IKA-Werke GmbH & Co. KG, Staufen, Germany) in cold 0.25 M sucrose solution. The homogenate was centrifuged at 9000× g for 30 min, and the supernatant fraction was stored at −80 °C until further use. The reaction mixture consisted of substrate, plasma, or tissue S9 fractions (protein concentration: 0.5 mg/mL) and NADPH (1 mM) or UDPGA (2 mM) in Tris buffer (100 mM; pH 7.4). After preincubation at 37 °C for 5 min, acacetin (final concentration: 10 μM) was added to initiate the enzyme reaction. After 5 min of incubation with shaking at 37 °C, the reaction was terminated by mixing the reaction mixture with acetonitrile containing IS (volume four times that of the reaction mixture). After vortex-mixing and centrifugation at 16,000× g for 10 min, 100 μL of the supernatant was obtained and stored at −80 °C until further LC-MS/MS assay.

Series [4] in a line: Maximum absorbable dose (MAD) estimation. More on the design: species or system rat. The settings on record: oral dose 100 mg/kg, from measured SIF solubility. From the text: The PAMPA permeability values of acacetin seem to lie approximately in the middle of those of verapamil and ranitidine. […]. Rats have been recognized as a good animal model for predicting the GI absorption of drugs, particularly via passive diffusion, in humans. As a GI absorption prediction model, the maximum absorbable dose (MAD) can estimate a theoretical dose of a drug that can be absorbed across rat intestine, using solubility, intestinal volume, residence time, and intestinal permeability. […] Thus, the SIF solubility of acacetin measured in the present study could not represent an actual solubility of acacetin when it is dispersed in the dosing vehicle and subsequently administered into the GI fluids, which could result in the under-estimation of MAD. Alternatively, an in silico estimate of acacetin solubility in water can be used for the calculation of MAD.

On the set-up of series [5]: method as in PMID 28421306. The settings on record: oral, 5 mg/kg in mice; cited from earlier work.
On the set-up of series [6]: method as in PMID 25456423. The following applies: oral, 1.4–1.676 mg/kg in rats; cited from earlier work.
Series [7] concerns Caco-2 cell. More on the design: method as in PMID 22292790. The settings on record: cited from earlier work.

Like-named read-outs stand apart in the source and are kept apart here.

As a reminder, the AUC(0-inf) is the area under the concentration-time curve extrapolated to infinity. A high value points to high exposure. A word on the half-life: it is how long it takes for the measured level to halve. Read a low half-life as rapid decline. One may read the Cmax as the maximum level reached in the sampled fluid or tissue. `COc1ccc(-c2cc(=O)c3c(O)cc(O)cc3o2)cc1` [acacetin, Acacetin]: the blood plasma ratio at 30 min, 1 μM in series [1] is roughly 1. For the same compound, in series [2] (IV 10 mg/kg), the “Urinary and GI (including biliary) excretion of unchanged acacetin” value was 1.5–12.8 % of dose. For the same compound, in series [2] (IV 10 mg/kg, GI tract at 24 h), the GI24h is reported as 6.66 ± 5.34 % of dose. The Ae24h in series [2] (IV 10 mg/kg, urine 24 h) is listed as 2.50 ± 1.15 % of dose. The clearance in series [2] (Sprague-Dawley, rat, blood (plasma CL divided by RB), IV 10 mg/kg, read-out: Total blood clearance (CL/RB)) is 191 ± 34 mL/min/kg. Further, in series [2] (rat, IV 10 mg/kg, total plasma clearance, read-out: CL), the clearance was determined as 199 ± 36 mL/min/kg. In series [2] (rat, plasma, IV 10 mg/kg), this compound gave an AUC(0-inf) of 855 ng·h/mL and a half-life of 40.3 ± 7.2 min. The Vd in series [2] (rat, plasma, IV 10 mg/kg, read-out: Vss) amounted to 2.22 ± 0.507 L/kg. Besides, the Hepatic extraction ratio in series [2] (speculated from blood clearance vs hepatic blood flow) is roughly 1. Moreover, the “Tissue-dependent metabolizing activity (disappearance rate)” value in series [3] is “the liver exhibited significantly higher metabolizing activity than all the tested tissues”. Further, the “MAD as portion of the orally administered dose” value in series [4] is 0.00361%. Further, in series [5], the maximum concentration (Cmax) was 17 ng/mL and the F is 1.30%. In series [6], the maximum concentration (Cmax) is on record as 19.02 ng/mL. Also, the Caco-2 cell permeability in series [7] is reported as 2.81 × 10^–6 cm/s.
